Measured values as given in patent publication US8551721B2, “Bioluminescent detection of cyanohydroxy benzothiazole compounds” (Promega Corporation, priority 2008, dated 2013).

How the values were obtained:
Format in all cases: biochemical
[1] = tested on: endogenously expressed UGT isozymes in mammalian microsomes; experiment: Utilization of compounds by mammalian microsomes; settings: 15 minutes at 37° C., 0.1 mg/mL mammalian microsomes or 0.2 mg/mL Supersomes, 50 μM compound
Procedure: The invention includes a method of determining activity of the uridine 5′-diphospho-glucuronosyltransferase (UDP-glucuronosyltransferase, or UGT) family enzymes in vitro. […] Following the UGT enzyme reaction, an equal volume of P450-Glo Luciferin Detection Reagent (Promega) containing 15-30 mM D-cysteine-HCl.H2O (Sigma) was added and the plate was mixed and incubated at room temperature, typically for 20-30 minutes. P450-Glo Luciferin Detection Reagent can be prepared by dissolving a vial of Promega Luciferin Detection Reagent (Promega Part #V859B) with a vial of Promega P450-Glo Buffer (Promega Part #V865B).
During this incubation, the cysteine reacts with the cyanobenzathiozole substrate to yield a D-luciferin derivative. […] Therefore, activity of the UGT enzyme can be measured by analyzing the difference (lower or no output) in relative light units (RLU) of a sample in which glucuronidation occurs compared to a sample that was run under the same conditions with no added UDPGA cofactor.
Tissue microsomes were obtained from Xenotech LLC or BD Gentest.

UGT 2B7 = molecular target: T1, UGT 2B7 (Homo sapiens, UniProt P16662); experiment: Assay variability (Z') with UGT 2B7 Supersomes and compound 3138; settings: 0.2 mg/mL Supersomes, 30 μM compound 3138, plus or minus 5 mM UDPGA, 12 samples each, 120 mM at 37° C.
T1 construct: purchased BD Gentest; host or cells: insect cells (microsomes)
T1 sequence (P16662 24-529): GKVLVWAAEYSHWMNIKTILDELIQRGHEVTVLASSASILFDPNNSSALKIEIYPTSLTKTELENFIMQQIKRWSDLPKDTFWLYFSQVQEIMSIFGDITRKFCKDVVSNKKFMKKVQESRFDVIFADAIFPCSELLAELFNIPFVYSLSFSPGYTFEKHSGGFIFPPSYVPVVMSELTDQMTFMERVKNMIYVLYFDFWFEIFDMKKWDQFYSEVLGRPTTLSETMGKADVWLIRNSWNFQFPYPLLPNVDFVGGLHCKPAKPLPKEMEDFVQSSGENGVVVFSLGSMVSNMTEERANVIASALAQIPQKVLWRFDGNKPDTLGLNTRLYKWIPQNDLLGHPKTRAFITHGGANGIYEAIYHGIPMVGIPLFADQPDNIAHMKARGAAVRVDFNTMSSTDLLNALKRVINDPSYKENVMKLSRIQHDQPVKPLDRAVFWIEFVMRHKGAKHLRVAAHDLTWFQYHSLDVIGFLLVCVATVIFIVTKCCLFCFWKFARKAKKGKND
Procedure: (§1) Assay variability was determined using the activity data and standard deviations of 12 separate minus UDPGA and plus UDPGA samples. All reactions contained 50 mM TES, pH 7.5, 8 mM MgCl2, 25 μg/mL alamethicin, 0.2 mg/mL UGT 1A1 or 2B7 Supersomes™, and 30 μM compound 3138, plus or minus 5 mM UDPGA. After […] at 37° C., 40 μl, of LDR plus 20 mM D-cysteine was added to each 40 μl, reaction and mixed. After 20 minutes at room temperature, RLU were read on a luminometer.
(§2) Z′ values were calculated using the equation outlined below.
(§3) Robust assay systems typically display Z′ values of 0.5 or higher. The calculated Z′ value for UGT 1A1 was 0.83. The calculated Z′ value for UGT 2B7 under the same conditions was 0.67.

UGT 1A1 = molecular target: T2, UGT 1A1 (Homo sapiens, UniProt P22309); experiment: Assay variability (Z') with UGT 1A1 Supersomes and compound 3138; settings: 0.2 mg/mL Supersomes, 30 μM compound 3138, plus or minus 5 mM UDPGA, 12 samples each, 120 mM at 37° C.
T2 construct: purchased BD Gentest; host or cells: insect cells (microsomes)
T2 sequence (P22309 26-533): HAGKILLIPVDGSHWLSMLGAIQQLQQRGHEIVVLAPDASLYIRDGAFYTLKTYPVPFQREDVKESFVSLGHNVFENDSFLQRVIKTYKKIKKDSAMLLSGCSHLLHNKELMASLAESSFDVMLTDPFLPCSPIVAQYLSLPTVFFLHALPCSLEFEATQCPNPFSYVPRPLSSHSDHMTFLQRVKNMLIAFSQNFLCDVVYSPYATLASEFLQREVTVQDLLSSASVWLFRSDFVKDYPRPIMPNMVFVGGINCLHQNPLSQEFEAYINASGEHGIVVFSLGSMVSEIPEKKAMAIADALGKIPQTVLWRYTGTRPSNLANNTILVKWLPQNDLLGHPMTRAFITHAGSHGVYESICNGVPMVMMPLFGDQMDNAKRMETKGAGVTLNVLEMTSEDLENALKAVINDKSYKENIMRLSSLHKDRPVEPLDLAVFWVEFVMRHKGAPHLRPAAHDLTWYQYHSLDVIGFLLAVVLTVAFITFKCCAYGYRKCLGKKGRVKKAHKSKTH
Procedure: as §1, §2, §3

Cc1cc(O)cc2sc(C#N)nc12 [compound 3138]
utilization of compound 3138 by tissue microsomes compared with control 1A1 Supersomes [1]: All tissues tested utilized much more compound 3138 than the control 1A1 Supersomes | calculated Z′ value for UGT 2B7 (UGT 2B7): 0.67 | calculated Z′ value for UGT 1A1 (UGT 1A1): 0.83
